Results: patent US9937178B2, “Methods of identifying and using MDM2 inhibitors” (DUKE UNIVERSITY, priority 2011, dated 2018)

Tests used:
Mcl-1 [1] = test: 35[S]-Mcl-1 degradation in cell-free lysates; type: cell-based; conditions: resistant cell lysates, 5 μM ubiquitin aldehyde
Description: FIG. 3 is a set of photographs showing that Mcl-1 is stabilized in lapatinib-resistant cells. […] FIG. 3B is a set of immunoblots showing the levels of HER2 and phospho-HER2 in untreated cells and cells treated with lapatinib. Cells were treated with or without lapatinib (1 μM) for 24 hours in the presence of the caspase inhibitor z-VAD (50 μM). The cells were harvested and cell lysates were immunoblotted using antibodies against phospho-HER2 (Y877) and total HER2. FIG. 3C is an immunoblot for phospho-AKT (T308) and total AKT. BT474 and rBT474 cells were treated with 1 μM lapatinib in the presence of 50 μM z-VAD. At the indicated time points, the cells were harvested and immunoblotted. FIG. 3D is an immunoblot for phospho-Erl1/2(T202/Y204) and total Erk1/2. BT474 and rBT474 cells were treated with 1 μM lapatinib in the presence of 50 μM z-VAD. At the indicated time points, the cells were harvested and immunoblotted. […] FIG. 3F is an autoradiograph showing the ^35[S] radioactivity in lysates containing ^35[S]-Mcl-1 at the indicated time points. ^35[S]-labeled Mcl-1 protein was incubated in cell-free lysates prepared from BT474 and rBT474 cells (top) or SKBR3 and rSKBR3 cells (bottom). […] FLAG-Mcl-1 was retrieved by immunoprecipitation using anti-flag agarose, and Mcl-1 ubiquitylation was analyzed by immunoblotting for HA (*non-specific band, **IgG heavy chain). […]

PP5 = test: Immunoblot of PP5 protein levels; type: cell-based; conditions: rSKBR3 cells, 1 μM lapatinib, 10 μM Nutlin-3a, 36 hours, z-VAD
Description: FIG. 7 is a set of photographs and graphs showing PP5 stability and post-cytochrome c protection in lapatinib-resistant cells. FIG. 7A is an immunoblot for caspase-9 (cleaved and non-cleaved) and cleaved caspase-3 (C9 and C3, respectively) showing rBT474 cells cultured in the absence or presence of 1 μM lapatinib for one week, as compared to BT474 cells which were maintained without lapatinib. Cytosolic lysates prepared from BT474 or rBT474 were incubated with 1 mM dATP and various amounts of cytochrome c (CC). FIG. 7B is a set of graphs showing Caspase 3 activity in the indicated cell lysates over time. Caspase-3 activity was assayed by measuring cleavage of DEVD-pNA following incubation of the cell lysates with 1 mM dATP and various concentrations of cytochrome c. FIG. 7C is an autoradiograph of ^32P and an immunoblot showing the percentage of the protein phosphorylated. In the presence of [γ-^32P]ATP, recombinant His-tagged HSP90β proteins (wild type and the indicated mutants) on nickel beads were incubated with the HSP90β-targeted kinase casein kinase 2. FIG. 7D is an autoradiograph and corresponding immunoblot showing BT474 or rBT474 cells after being cultured in the absence or presence of 1 μM lapatinib for 24 hours in the presence of z-VAD. Recombinant His-tagged HSP90β protein on nickel beads was incubated with the cell lysates in the presence of [γ-^32P]ATP. FIG. 7E is an immunoblot for phospho-Hsp90β (Ser226) and total HSP90β at various time points. […] FIG. 7F is a set of graphs showing FACS analysis for the phosphorylation status of Hsp90β (Ser255). BT474 or rBT474 cells cultured in the presence of 1 μM lapatinib for 24 hours were fixed with formaldehyde and incubated with phospho-Hsp90β (Ser255) antibody followed by an Alexa488-conjugated secondary antibody. FIG. 7G is an immunoblot for PP5 and actin at the indicated time points. BT474 and rBT474 (left) or AU565 and rAU565 cells (right) were treated with 1 μM lapatinib. FIG. 7H is an autoradiograph of immunoprecipitated FLAG-PP5 using an anti-FLAG agarose. […]

CAS = test: Immunoblot of CAS protein levels; type: cell-based; conditions: rSKBR3 cells, 1 μM lapatinib, 10 μM Nutlin-3a, 36 hours, z-VAD
Description: FIG. 11 is a set of photographs of immunoblots showing CAS degradation in lapatinib-resistant cells. FIG. 11A is an immunoblot for CAS and Actin. BT474 and rBT474 (left) or AU565 and rAU565 cells (right) cultured in the absence of lapatinib for one week were treated with 1 μM lapatinib and the cells were harvested at various time points. FIG. 11B is an immmunoblot for CAS and Actin. rBT474 cells were maintained in the presence of […] lapatinib and the cells were harvested at various time points following removal of lapatinib. FIG. 11C is an immunoblot for FLAG and actin. BT474 and rBT474 cells were transiently transfected with FLAG-tagged CAS and subsequently treated with 50 μg/ml cycloheximide (CHX) and 1 μM lapatinib and the cells were harvested at various time points. FIG. 11D is an immunoblot using HA to analyze ubiquitination of CAS. BT474 and rBT474 (left) or SKBR3 and rSKBR3 cells (right) were co-transfected with FLAG-CAS and HA-Ub. […] After treatment with 10 μM MG 132 for 8 hours, cells were harvested and FLAG-CAS was retrieved by immunoprecipitation. FIG. 11E is an immunoblot for FLAG-tagged proteins retrieved by immunoprecipitation and association with MDM2. H1299 cells were transfected with empty vector, FLAG-CAS^W127A, or FLAG-CAS wild type. FIG. 11F is an immunoblot for CAs after immunoprecipitation for FLAG. H1299 cells were transfected with empty vector, FLAG-CAS^W127A, or FLAG-CAS wild type. Cells were treated with 10 μM MG132 for 3 hours. […] SKBR3 cells were transfected with increasing amounts of MDM2. After 48 hours, cells were harvested and immunoblotted (*non-specific band). FIG. 11H is an immunoblot for CAS. […] FIG. 11I is an immunoblot for MDM2 or CAs after immunoprecipitation with FLAG. BT474 and rBT474 cells were transfected with FLAG-CAS. […] After treatment with 10 μM MG132 for 5 hours, FLAG-CAS was retrieved by immunoprecipitation and association of endogenous MDM2 was analyzed by immunoblotting.

Huwe1 = test: Immunoblot of Huwe1 protein levels and stability; type: cell-based; conditions: rSKBR3 cells, 1 μM lapatinib, 10 μM Nutlin-3a, 36 hours, z-VAD
Description: FIG. 13 is a set of immunoblots showing MDM2-mediated ubiquitylation and degradation of Huwe1 in lapatinib-resistant cells. […] Cells treated with 1 μM lapatinib were harvested at various time points and immunoblotted. […] FIG. 13B is an immunoblot for HA and actin. BT474 and rBT474 cells were transiently transfected with HA-tagged Huwe1 and subsequently treated with 50 μg/ml cycloheximide (CHX) and 1 μM lapatinib. FIG. 13C is an immunoblot for Huwe1 and MDM2. Immunoprecipitation was carried out using H1299 cell lysates and anti-Huwe1 antibody (or control IgG). FIG. 13D is an immunoblot for HA or MDM2 after immunoprecipitation with HA. BT474 cells were transfected with HA-tagged Huwe1 encoding the full-length protein, residues 1-2474, or residues 2473-4374. […] H1299 cells were transfected with empty vector, HA-Huwe1^W1202A, or HA-Huwe1 wild type. FIG. 13F is an immunoblot for Huwe1 and Actin. BT474 cells were transfected with increasing amounts of MDM2 and harvested after 48 hours. FIG. 13G is an immunoblot for Huwe1, MDM2, and actin. […] FIG. 13H is an immunoblot for Huwe1. Ubiquitylation of Huwe1 was reconstituted in vitro by incubating recombinant Huwe1 protein (Huwe1^1-2474) with E1, UbcH5 (E2), ubiquitin (Ub), and recombinant MDM2 protein in reaction buffer at 37° C. for 3 hours. […] Twenty-four hours later, the cells were replated and further transfected with HA-tagged Huwe1 (wild type). Forty-eight hours after siRNA transfection, the cells were treated with 1 μM lapatinib. After 24 hours of lapatinib treatment, 50 μg/ml cycloheximide (CHX) was added to the culture medium and cells were harvested at various time points for immunoblotting.

Mcl-1 [2] = test: Immunoblot of Mcl-1 protein levels; type: cell-based; conditions: rSKBR3 cells, 1 μM lapatinib, 10 μM Nutlin-3a, 36 hours, z-VAD
Description: FIG. 3 is a set of photographs showing that Mcl-1 is stabilized in lapatinib-resistant cells. […] FIG. 3B is a set of immunoblots showing the levels of HER2 and phospho-HER2 in untreated cells and cells treated with lapatinib. Cells were treated with or without lapatinib (1 μM) for 24 hours in the presence of the caspase inhibitor z-VAD (50 μM). The cells were harvested and cell lysates were immunoblotted using antibodies against phospho-HER2 (Y877) and total HER2. FIG. 3C is an immunoblot for phospho-AKT (T308) and total AKT. BT474 and rBT474 cells were treated with 1 μM lapatinib in the presence of 50 μM z-VAD. At the indicated time points, the cells were harvested and immunoblotted. FIG. 3D is an immunoblot for phospho-Erl1/2(T202/Y204) and total Erk1/2. BT474 and rBT474 cells were treated with 1 μM lapatinib in the presence of 50 μM z-VAD. At the indicated time points, the cells were harvested and immunoblotted. FIG. 3E is an immunoblot for Mcl-1, Bim, and Actin. BT474 and rBT474 cells (left) or SKBR3 and rSKBR3 cells (right) were treated with 1 μM lapatinib. The cells were harvested at the indicated time points and immunoblotted. FIG. 3F is an autoradiograph showing the ^35[S] radioactivity in lysates containing ^35[S]-Mcl-1 at the indicated time points. ^35[S]-labeled Mcl-1 protein was incubated in cell-free lysates prepared from BT474 and rBT474 cells (top) or SKBR3 and rSKBR3 cells (bottom). FIG. 3G is an autograph showing the ^35[S]-labeled Mcl-1 to monitor Mcl-1 stability over time. The ^35[S]-labeled Mcl-1 was incubated in lysates prepared from rBT474 cells treated with or without 1 μM lapatinib. FIG. 3H is an immunoblot for HA. SKBR3 or rSKBR3 cells were co-transfected with FLAG-Mcl-1 and HA-Ubiquitin (Ub). […] Cells were harvested after treatment with 10 μM MG 132 for 4 hours. FLAG-Mcl-1 was retrieved by immunoprecipitation using anti-flag agarose, and Mcl-1 ubiquitylation was analyzed by immunoblotting for HA (*non-specific band, **IgG heavy chain).

rAU565-derived tumor = test: rAU565 mammary fat pad xenograft; conditions: 100 mg/kg each drug, twice daily by oral gavage
Description: (§1) Six week-old female nude mice were purchased from NCI Frederic. Xenograft tumors were produced by injection into the mammary fat pad with cells (10×10^6). Tumor volumes were calculated every 3-4 days based on caliper measurements of the short (a) and long (b) tumor diameters (volume=a2b/2). […] Mice were dosed orally with vehicle alone, lapatinib (100 mg/kg), Nutlin-3 (100 mg/kg), or combination of both twice daily by gavage.

BT474 xenografts = test: BT474 mammary fat pad xenograft; conditions: 100 mg/kg each drug, twice daily by oral gavage
Description: (§2) Forty-eight hours after siRNA transfection, cells were treated with 1 μM lapatinib for 48 hours, and cells were harvested and subjected to Annexin V staining. The percentage of Annexin V-positive cells was analyzed by FACS. Results are expressed as a mean percentage±SEM and analyzed by t-test (*P<0.05). […] The oral administration of lapatinib (100 mg/kg, twice daily by oral gavage) began when the average tumor volume surpassed 300 mm^3. Results are expressed as a mean percentage±SEM. […] After 36 hours, cells were harvested and immunoblotted. […] BT474 and rBT474 cells were injected into the mammary fad pad of each mouse. When tumors developed to a size of 200 mm^3, the mice were randomly assigned to receive vehicle, lapatinib (100 mg/kg), Nutlin-3 (100 mg/kg), or Lapatinib+Nutlin-3 and treated twice daily by oral gavage. Results are expressed as a mean percentage±SEM. […] Percentage of apoptotic cell death was measured by FACS analysis using Annexin V. Results are expressed as a mean percentage±SEM of Annexin V-positive cells (*P<0.05 by t-test).
(§3) Six week-old female nude mice were purchased from NCI Frederic. Xenograft tumors were produced by injection into the mammary fat pad with cells (10×10^6). Tumor volumes were calculated every 3-4 days based on caliper measurements of the short (a) and long (b) tumor diameters (volume=a2b/2). […]

AU565-derived tumor = test: AU565 mammary fat pad xenograft; type: in vivo, mouse; conditions: 100 mg/kg each drug, twice daily by oral gavage
Description: as §1

rBT474 xenografts = test: rBT474 mammary fat pad xenograft; conditions: 100 mg/kg each drug, twice daily by oral gavage
Description: as §2, §3

Compound: ubiquitin aldehyde
- degradation of 35[S]-Mcl-1 (Mcl-1 [1]): did not prevent the failure to degrade

Compound: COc1ccc(C2=N[C@@H](c3ccc(Cl)cc3)[C@@H](c3ccc(Cl)cc3)N2C(=O)N2CCNC(=O)C2)c(OC(C)C)c1 [Nutlin-3a]
- lapatinib-induced upregulation of PP5 (PP5): suppressed
- CAS degradation (CAS): significantly inhibited
- lapatinib-induced degradation of Huwe1 (Huwe1): prevented
- lapatinib-induced upregulation of Mcl-1 (Mcl-1 [2]): suppressed

Compound: COc1ccc(C2=N[C@@H](c3ccc(Cl)cc3)[C@@H](c3ccc(Cl)cc3)N2C(=O)N2CCNC(=O)C2)c(OC(C)C)c1 [Nutlin-3]
- rAU565-derived tumor growth (rAU565-derived tumor): moderate tumor inhibitory effects
- growth of BT474-derived tumors (BT474 xenografts): only modestly inhibited
- AU565-derived tumor growth (AU565-derived tumor): moderate tumor inhibitory effects
- rBT474-derived tumor growth (rBT474 xenografts): Neither lapatinib nor Nutlin-3 inhibited
